Test results: PubChem BioAssay (NCI)
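Compound exposure: 48 hours, 5 concentrations, 96-well plates. GI50 = concentration required for 50% inhibition of growth. TGI denotes the concentration required for complete inhibition of growth.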 Where a SMILES comes first, the peptide text is derived from it. Bridges are numbered along the chain shown (N, C = ends). Roman numbers before positions name the chains, in order. [ ]: non-standard residue; d: D form. The star is where a group is joined. Heptadecanoyl = CCCCCCCCCCCCCCCCC(=O)*; Phg = N[CH](C(=O)O)c1ccccc1

How the values were obtained:
Experiment in all cases: NCI tumour cell line growth inhibition, 48 h
SK-OV-3 ovarian = tested on: SK-OV-3 ovarian
MDA-MB-435 = tested on: MDA-MB-435
MDA-N = tested on: MDA-N
A498 renal = tested on: A498 renal
U251 CNS = tested on: U251 CNS
A549 NSCLC = tested on: A549 NSCLC
SF-295 CNS = tested on: SF-295 CNS
CCRF-CEM leukemia = tested on: CCRF-CEM leukemia
OVCAR-3 ovarian = tested on: OVCAR-3 ovarian
NCI-H522 lung = tested on: NCI-H522 lung

Compound	TGI (SK-OV-3 ovarian) [µM]	TGI (MDA-MB-435) [µM]	TGI (MDA-N) [µM]	TGI (A498 renal) [µM]	TGI (U251 CNS) [µM]	TGI (A549 NSCLC) [µM]	TGI (SF-295 CNS) [µM]	TGI (CCRF-CEM leukemia) [µM]	TGI (OVCAR-3 ovarian) [µM]	TGI (NCI-H522 lung) [µM]	GI50 (SK-OV-3 ovarian) [µM]	GI50 (MDA-MB-435) [µM]	GI50 (A498 renal) [µM]	GI50 (U251 CNS) [µM]	GI50 (A549 NSCLC) [µM]	GI50 (SF-295 CNS) [µM]	GI50 (NCI-H522 lung) [µM]	GI50 (CCRF-CEM leukemia) [µM]	GI50 (OVCAR-3 ovarian) [µM]
C[C@]12CCC(=O)C=C1CC[C@@H]1[C@@H]2CC[C@]2(C)C(=O)/C(=C\c3ccccc3)C[C@@H]12	> 100	> 100	48	42.4	> 69.4	> 68	> 80.3	23.3	> 77.1	–	–	–	–	–	–	–	–	–	–
COc1cc(C2SC(N)=Nc3c2c(C)nn3C(=O)Cc2ccccc2)ccc1O (stereo unspecified)	> 100	> 100	> 100	> 100	–	> 100	> 100	> 100	–	> 100	–	–	–	–	–	–	–	–	–
Cc1nn(C(=O)c2ccncc2)c2c1C(c1ccccc1O)SC(N)=N2 (stereo unspecified)	> 10	> 10	> 10	–	> 10	> 10	> 10	> 10	> 10	> 10	–	–	–	–	–	–	–	–	–
Clc1ccc(N=Cc2cc3cc(Br)ccc3nc2Cl)cc1	–	> 50	> 50	–	–	–	–	32.5	–	> 50	–	–	–	–	–	–	–	–	–
CCC1CCN=C(Cn2cc(C)c(=O)[nH]c2=O)N1 (stereo unspecified)	> 100	–	> 100	> 100	> 100	> 100	> 100	> 100	–	> 100	–	–	–	–	–	–	–	–	–
N#CC(C#N)=Cc1ccc(-c2ccc(-c3nc4ccccc4s3)cc2)s1	50.5	64.5	–	41.1	31.9	> 100	59.1	62.9	34.8	54	19.7	25.5	18.7	14.9	13.8	22.6	19.4	21	14.9
Oc1ccc2c3c1OC1c4[nH]c5c(c4CC4(O)C(C2)N(CC2CC2)CC[C@]314)CC1(O)C2Cc3ccc(O)c4c3[C@@]1(CCN2CC1CC1)C5O4 (stereo partly specified)	> 100	37.6	38.9	32.4	34.6	37.6	40	–	35.8	49.3	–	–	–	–	–	–	–	–	–
CC1CC(=O)NC2CC1C2(C)C (stereo unspecified)	–	> 100	> 100	–	> 100	> 100	> 100	> 100	> 100	> 100	–	–	–	–	–	–	–	–	–
Cc1ccc(S(=O)(=O)N/N=C2/CC[C@H](C(C)(C)C)C[C@@H]2C)cc1	36.6	32.7	34.3	31.6	33.5	33.4	29.2	38.8	25.2	–	–	–	–	–	–	–	–	–	–
CCOC(=O)c1cc(C2(OC)CCN(Cc3ccccc3)C2=O)c(-c2cc(C)no2)[nH]1 (stereo unspecified)	> 100	> 100	> 100	> 100	> 100	> 100	> 100	–	> 100	> 100	–	–	–	–	–	–	–	–	–
COc1ccc(C2S/C(=C\c3cccc([N+](=O)[O-])c3)C(=O)N2NC(=O)Cc2ccccc2)cc1 (stereo unspecified)	> 100	–	–	> 100	> 100	> 100	> 100	> 100	–	> 100	–	–	–	–	–	–	–	–	–
N=c1c2ccccc2nc2oc3ccc(Cl)cc3n12	46.2	> 100	> 100	–	17.8	97	35.6	> 100	31.4	53.1	–	–	–	–	–	–	–	–	–
Cc1c(C)c2ccc(O)cc2[nH]c1=O	–	> 100	> 100	> 100	> 100	> 100	> 100	> 100	> 100	–	–	–	–	–	–	–	–	–	–
COc1ccc(N2C(=O)CC(c3c[nH]c4ccccc34)C2=O)cc1 (stereo unspecified)	> 100	> 100	> 100	> 100	> 100	> 100	> 100	> 100	> 100	–	–	–	–	–	–	–	–	–	–
CCOC(=O)C1C(=O)CC(C)(O)C(C(=O)OCC)C1c1ccc(OC)cc1 (stereo unspecified)	–	> 100	> 100	> 100	> 100	> 100	> 100	> 100	> 100	> 100	–	–	–	–	–	–	–	–	–
CCCCCCCCCCCCCCCCC(=O)N1CCCC1C(=O)NCC(=O)NC(C(=O)N1CCCC1C(=O)NC(CO)C(=O)NC(Cc1ccc(O)cc1)C(=O)NC(CCCCNC(=O)C1CCCN1C(=O)C(CCCCN)NC(=O)C(CCCCN)NC(=O)C(CCCCN)NC(=O)C(CCCNC(=N)N)NC(=O)C(CCCCN)NC(=O)C(N)C(C)C)C(=O)NC(CC(C)C)C(=O)NC(CCCNC(=N)N)C(=O)N1CCCC1C(=O)NCC(N)=O)c1ccccc1 (stereo unspecified) (I: Heptadecanoyl-PG[Phg]PSYKLRPG-NH2 / II: H-VKRKKKP; amide I:7-II:C; configuration not given here)	51.4	83.9	–	> 100	–	53.3	80.1	31.5	71.2	85.9	23.1	18.9	76.3	–	23.9	25	25.5	12	27
C=CCn1c(=S)sc2c(=O)[nH]cnc21	> 100	–	–	> 100	> 100	> 100	> 100	> 100	> 100	> 100	–	–	–	–	–	–	–	–	–
COc1ccc(-n2nnnc2C2(Nc3ccccc3)CCN(Cc3ccccc3)CC2)cc1	86.2	15.4	–	48.7	> 100	45.8	28.9	> 100	–	–	–	–	–	–	–	–	–	–	–
O=C(O)C1CCCN1Cc1ccc2c(c1)OCO2 (stereo unspecified)	> 100	> 100	> 100	> 100	> 100	> 100	> 100	–	> 100	> 100	–	–	–	–	–	–	–	–	–
O=C1CCC2(c3ccc(F)cc3)Nc3ncncc3N12 (stereo unspecified)	–	> 10	> 10	–	> 10	> 10	> 10	> 10	> 10	> 10	–	–	–	–	–	–	–	–	–
CC(C)(C)C1=NN=C2c3ccccc3C(=O)C21 (stereo unspecified)	–	> 100	–	99.5	> 100	> 100	> 100	> 100	> 100	> 100	–	–	–	–	–	–	–	–	–
C/C(=C\c1ccc2c(c1)OCO2)[N+](=O)[O-]	–	5.34	–	24.3	–	> 100	6.27	> 100	–	3.21	–	–	–	–	–	–	–	–	–

Compound	TGI (SK-OV-3 ovarian) [µM]	TGI (MDA-MB-435) [µM]	TGI (MDA-N) [µM]	TGI (A498 renal) [µM]	TGI (U251 CNS) [µM]	TGI (A549 NSCLC) [µM]	TGI (SF-295 CNS) [µM]	TGI (CCRF-CEM leukemia) [µM]	TGI (OVCAR-3 ovarian) [µM]	TGI (NCI-H522 lung) [µM]	GI50 (SK-OV-3 ovarian) [µM]	GI50 (MDA-MB-435) [µM]	GI50 (A498 renal) [µM]	GI50 (U251 CNS) [µM]	GI50 (A549 NSCLC) [µM]	GI50 (SF-295 CNS) [µM]	GI50 (NCI-H522 lung) [µM]	GI50 (CCRF-CEM leukemia) [µM]	GI50 (OVCAR-3 ovarian) [µM]
CC1(CC(=O)OC(C#C[Si](C)(C)C)Cc2ccccc2)OCCO1 (stereo unspecified)	> 100	> 100	> 100	> 100	> 100	> 100	> 100	> 100	–	> 100	–	–	–	–	–	–	–	–	–
CC(=O)OCC1OC(OC2CC3C(C)(C)C(=O)CC[C@]3(C)C3CC[C@]45C[C@]4(CCC5[C@@H](C)CC(O)C(O)C(C)(C)O)[C@]23C)C(O)C(O)C1O (stereo partly specified)	28.9	21.2	22.7	–	20.3	31.6	27.1	16.7	25.4	22.7	–	–	–	–	–	–	–	–	–
COc1ccc(C2Oc3c(cccc3OC)C=C2[N+](=O)[O-])cc1 (stereo unspecified)	15.3	10.9	13.1	–	3.76	26.4	16.3	> 100	4.75	3.02	–	–	–	–	–	–	–	–	–
Cc1ccccc1Nc1cn(CCOc2ccccc2)c(=O)n(CCOc2ccccc2)c1=O	–	> 100	> 100	> 100	> 100	> 100	> 100	> 100	> 100	> 100	–	–	–	–	–	–	–	–	–
CC1OC2OC3C(OCC(O)C3O)OC(=O)[C@]34CCC(C)(C)CC3C3=CCC5[C@@]6(C)C[C@H](O)[C@H](OC7OC(CO)C(O)C(O)C7OC7OC(COC(=O)CC(C)(O)CC(=O)OC1C(O)C2O)C(O)C(O)C7O)[C@@](C)(CO)C6CC[C@@]5(C)[C@]3(C)CC4 (stereo partly specified)	2.79	2.88	2.73	–	2.91	2.63	3.1	–	3.15	3.08	–	–	–	–	–	–	–	–	–
Cn1c(=O)c2c(nc3sc4ncccc4c(=O)n32)n(C)c1=O	> 100	> 100	> 100	> 100	> 100	–	> 100	> 100	> 100	–	–	–	–	–	–	–	–	–	–
O=C(CN1CCCC1)Nc1ccc2sc3ccccc3c(=O)c2n1	58.7	35.3	77.6	–	46.3	38.8	67.8	48.2	> 100	36	–	–	–	–	–	–	–	–	–
CCC(/C=C/c1ccccc1)=N\N=C(\C=C\c1ccccc1)CC	> 100	–	–	> 100	> 100	> 100	> 100	> 100	> 100	> 100	–	–	–	–	–	–	–	–	–
CC[C@]12C=CCN3CCC4(c5cc(N=Nc6ccc([N+](=O)[O-])cc6)c(OC)cc5N(C)[C@H]4[C@@](O)(C(=O)OC)[C@@H]1OC(C)=O)[C@@H]32 (stereo partly specified)	> 100	31.6	38.6	77.2	27.4	> 100	30.8	26.6	16.8	–	–	–	–	–	–	–	–	–	–
CC1(c2nc3cc(Cl)c(Cl)cc3[nH]2)CCC(C(=O)O)C(C)(C)O1 (stereo unspecified)	> 100	> 100	> 100	–	> 100	> 100	> 100	> 100	> 100	> 100	–	–	–	–	–	–	–	–	–
CC1(C)OC([C@H](O)CO)C([C@H]2NCCS2)O1 (stereo partly specified)	> 100	> 100	–	> 100	> 100	> 100	> 100	> 100	> 100	> 100	–	–	–	–	–	–	–	–	–
Nc1nc(Cl)nc2c1ncn2C1CCC(CO)O1 (stereo unspecified)	> 100	> 100	> 100	> 100	> 100	–	> 100	> 100	> 100	–	–	–	–	–	–	–	–	–	–
O=C(CN1C(=O)c2ccccc2C1=O)OCC1CCCN2CCCCC12 (stereo unspecified)	> 100	> 100	> 100	> 100	> 100	> 100	> 100	> 100	–	–	–	–	–	–	–	–	–	–	–
C=C1C(=O)O[C@H]2[C@H]3O[C@@H](C[C@@H]12)[C@](C)(O)CCCC(C)=CCC[C@H]3C	35.3	15.8	75.8	–	29.8	33.6	31.7	3.24	27.5	17.3	–	–	–	–	–	–	–	–	–
CN(C)N1C(=O)CC2(CCN(CCCC(=O)c3ccc(F)cc3)CC2)C1=O	> 100	> 100	> 100	> 100	> 100	> 100	> 100	–	> 100	> 100	–	–	–	–	–	–	–	–	–
CCOC(=O)c1cc(Cl)ccc1OC(N)=O	> 100	–	–	> 100	> 100	> 100	> 100	> 100	> 100	–	–	–	–	–	–	–	–	–	–
Cc1ccc(OCCn2cc(Nc3ccccc3)c(=O)[nH]c2=O)cc1	–	> 100	> 100	> 100	> 100	> 100	> 100	> 100	> 100	> 100	–	–	–	–	–	–	–	–	–
CC(=O)OCC(OC(C)=O)C(OC(C)=O)C(OC(C)=O)C(/C=N\Nc1nc2ccccc2c(=O)[nH]1)OC(C)=O (stereo unspecified)	> 100	> 100	> 100	–	> 100	> 100	> 100	> 100	> 100	> 100	–	–	–	–	–	–	–	–	–
N.N.N.N.O=S(=O)([O-])[O-].[Co+3].[OH3+].[OH3+]	> 100	–	–	> 100	> 100	> 100	> 100	> 100	> 100	> 100	–	–	–	–	–	–	–	–	–
CO/N=C/c1c(-c2ccc(Cl)cc2)c(/C=N/OC)n2c1sc1ccccc12	> 100	> 100	> 100	–	> 100	> 100	> 100	> 100	> 100	> 100	–	–	–	–	–	–	–	–	–
O=C(O)CCCC#CCCCC(=O)O	> 100	> 100	> 100	> 100	> 100	> 100	> 100	–	> 100	> 100	–	–	–	–	–	–	–	–	–
